Measurements: ChEMBL document CHEMBL3734677, “EVALUATION OF AROMATIC 6-SUBSTITUTED THIENOPYRIMIDINES AS SCAFFOLDS AGAINST PARASITES THAT CAUSE TRYPANOSOMIASIS, LEISHMANIASIS, AND MALARIA” (Medchemcomm, 2015)

Columns and labels:
[1] = system: Trypanosoma brucei brucei; experiment: Antiparasitic activity against bloodstream Trypanosoma brucei bruei CA427 after 48 hrs by cytometry; format: functional, organism-based; conditions: CA427, 48 h
Trypanosoma brucei [2] = experiment: Antiparasitic activity against Trypanosoma brucei after 48 hrs by cytometry; format: functional, organism-based
Trypanosoma cruzi [3] = experiment: Antiparasitic activity against Trypanosoma cruzi; format: functional, organism-based
Leishmania major [4] = experiment: Antiparasitic activity against Leishmania major amastigotes; format: functional, organism-based; conditions: Leishmania major; read-out: EC50
Leishmania major [5] = experiment: Antiparasitic activity against Leishmania major promastigotes; format: functional, organism-based; conditions: Leishmania major; read-out: EC50
Plasmodium falciparum = experiment: Antiparasitic activity against Plasmodium falciparum D6; format: functional, organism-based; conditions: Plasmodium falciparum, D6; read-out: EC50
[6] = (§1) Cytotoxicity against human HepG2 cells by MTT assay; format: cell-based; conditions: HepG2 cells, read-out: TC50 (the source's name)
[7] = Selectivity ratio, ratio of EC50 for Plasmodium falciparum W2 to EC50 for Plasmodium falciparum D6; format: functional
[8] = Selectivity ratio, ratio of EC50 for Plasmodium falciparum C235 to EC50 for Plasmodium falciparum D6; format: functional
HepG2 = experiment: as §1; format: cell-based; conditions: hepg2
[9] = Aqueous solubility of compound; format: physicochemical; conditions: buffer
[10] = Plasma protein binding in human; format: ADME, cell-free
[11] = Metabolic stability in human microsomes; format: ADME, Microsome
[12] = Metabolic stability in rat Hepatocytes; format: ADME, cell-based, Hepatocyte
Trypanosoma brucei [13] = experiment: Antiparasitic activity against Trypanosoma brucei at 5 uM after 48 hrs by cytometry; format: functional
Trypanosoma cruzi [14] = experiment: Antiparasitic activity against Trypanosoma cruzi at 10 uM; format: functional

Row | SMILES | EC50 [1] [µM] | EC50 (Trypanosoma brucei [2]) [µM] | EC50 (Trypanosoma cruzi [3]) [µM] | EC50 (Leishmania major [4]) [µM] | EC50 (Leishmania major [5]) [µM] | EC50 (Plasmodium falciparum) [µM] | CC50 [6] [µM] | Ratio EC50 [7] | Ratio EC50 [8] | Activity (HepG2) | solubility [9] [µM] | PPB [10] [%] | Stability [11] | Stability [12] | inhibition at 5 µM (Trypanosoma brucei [13]) [%] | inhibition at 10 µM (Trypanosoma cruzi [14]) [%]
1 | Fc1cccc(COc2ccc(Nc3ncnc4cc(C#C[C@@H]5CCCN5)sc34)cc2Cl)c1 | 0.26 |  |  |  |  |  |  |  |  |  |  |  |  |  |  | 
2 | Fc1cccc(COc2ccc(Nc3ncnc4ccc(-c5ccc(CN6CCOCC6)cc5)cc34)cc2Cl)c1 |  | 1 | 0.6 | 5.91 | 2.74 | 0.063 | 12.9 | < 3 | < 3 |  |  |  |  |  |  | 
3 | Cc1cc(-c2cc3ncnc(Nc4ccc(OCc5cccc(F)c5)c(Cl)c4)c3s2)cnc1N1CCOCC1 |  | 0.084 | 3.3 | > 3 | > 3 | 0.23 |  | < 3 | < 3 | Non-toxic | < 1 | > 99 | Stable | Stable |  | 
4 | Fc1cccc(COc2ccc(Nc3ncnc4sc(-c5ccc(CN6CCOCC6)cc5)cc34)cc2Cl)c1 |  |  | 1.7 | 4.2 | > 20 | 0.089 |  | < 3 | < 3 | Non-toxic |  |  |  |  | 60 | 
5 | Fc1cccc(COc2ccc(Nc3ncnc4sc(-c5ccccc5)cc34)cc2Cl)c1 |  | 1.7 |  | > 15 | > 20 | > 20 | 10 |  |  |  |  |  |  |  |  | 42
6 | Fc1cccc(COc2ccc(Nc3ncnc4ccc(-c5cccc(N6CCOCC6)c5)cc34)cc2Cl)c1 |  |  |  | 7.98 |  |  |  |  |  | Non-toxic | < 1 | > 99 | Stable | Stable |  | 
7 | Fc1cccc(COc2ccc(Nc3ncnc4ccc(-c5ccccc5)cc34)cc2Cl)c1 |  | 3.9 | 1.8 | > 15 | 4.05 | 0.79 | 4.9 |  |  |  |  |  |  |  |  | 
8 | CS(=O)(=O)CCNCc1ccc(-c2ccc3ncnc(Nc4ccc(OCc5cccc(F)c5)c(Cl)c4)c3c2)o1 [LAPATINIB] |  |  |  |  |  |  | > 35 |  |  |  |  |  |  |  |  | 
9 | Fc1cccc(COc2ccc(Nc3ncnc4cc(-c5ccccc5Oc5ccccc5)sc34)cc2Cl)c1 |  |  | > 50 | 3.5 | > 20 | 6.21 |  |  |  | Non-toxic |  |  |  |  | 10 | 
10 | Fc1cccc(COc2ccc(Nc3ncnc4ccc(-c5ccc(N6CCOCC6)cc5)cc34)cc2Cl)c1 |  | 1.9 |  | > 15 | 4.4 | 0.27 | 9.6 |  |  |  |  |  |  |  |  | 10.1
